Experimental data: patent US20260200897A1, “4-((5-(3-(4-(PYRIDIN-2-YL)CYCLOPENTYL)-1H-PYRAZOL-3-YL)AMINO)-BENZENESULFONAMIDE DERIVATIVES AND SIMILAR COMPOUNDS AS CDK INHIBITORS FOR THE TREATMENT OF CANCER” (BeOne Medicines I GmbH, priority 2023, published 2026)

What was measured:
CDK2/Cyclin E1 = CDK2/Cyclin E1 (Homo sapiens, UniProt P24941); test: CDK2/Cyclin E1 TR-FRET biochemical assay, 1 mM ATP; conditions: 0.15 μM Rb (Ser780)-biotin substrate, 90 min reaction, Table 2
Experimental: (§1) Compounds disclosed herein were tested for inhibition of CDK2/Cyclin E1 or CDK1/Cyclin B kinase in an assay based on the time-resolved fluorescence-resonance energy transfer (TR-FRET) methodology. The assay was carried out in 384-well low volume black plates in a reaction mixture containing CDK2/Cyclin E1 or CDK1/Cyclin B1, 1 mM ATP for CDK2/Cyclin E1 and CDK1/Cyclin B1, 0.15 μM Rb (Ser780)-biotin substrate and 0-10 μM compound in buffer containing 50 mM HEPES pH7.0, 0.02% NaN3, 0.01% BSA, 0.1 mM Orthovanadate, 50 mM MgCl2, 1 mM DTT and 0.005% Tween-20. The kinase was incubated with compound for 60 minutes at room temperature and the reaction was initiated by the addition of ATP and Rb (Ser780)-biotin substrate. After reaction at room temperature for 90 minutes, an equal volume of stop/detection solution was added according to the manufacture's instruction (Cisbio Bioassays). The stop/detection solution contained Streptavidin-XL665 and Anti-pRb (Ser780) mAb-Eu Cryptate in Detection buffer (Cisbio Bioassays). Plates were incubated at room temperature for 60 minutes, and the TR-FRET signals (ex337 nm, em665 nm/620 nm) were recorded on a PHERAstar FSX plate reader (BMG Labtech). The inhibition percentage of CDK2/Cyclin E1 or CDK1/Cyclin B1 kinase activity in presence of increasing concentrations of compounds was calculated based on the ratio of fluorescence at 665 nm to that at 620 nm. The IC50 for each compound was derived from fitting the data to the four-parameter logistic equation by Dotmatics.

CDK1/Cyclin B1 = CDK1/Cyclin B1 (Homo sapiens, UniProt P06493); test: CDK1/Cyclin B1 TR-FRET biochemical assay, 1 mM ATP; conditions: 0.15 μM Rb (Ser780)-biotin substrate, 90 min reaction, Table 2
Experimental: as §1

Chain of CDK1/Cyclin B1 (P06493 whole entry): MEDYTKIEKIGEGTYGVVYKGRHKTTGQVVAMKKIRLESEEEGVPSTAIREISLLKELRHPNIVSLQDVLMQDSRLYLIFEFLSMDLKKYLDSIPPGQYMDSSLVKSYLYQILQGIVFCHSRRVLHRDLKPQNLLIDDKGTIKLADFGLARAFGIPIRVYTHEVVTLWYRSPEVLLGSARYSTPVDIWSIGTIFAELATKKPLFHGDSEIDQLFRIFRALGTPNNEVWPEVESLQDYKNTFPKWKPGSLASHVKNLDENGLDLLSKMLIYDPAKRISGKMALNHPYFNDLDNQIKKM
Chain of CDK1/Cyclin B1 (P14635 whole entry partner): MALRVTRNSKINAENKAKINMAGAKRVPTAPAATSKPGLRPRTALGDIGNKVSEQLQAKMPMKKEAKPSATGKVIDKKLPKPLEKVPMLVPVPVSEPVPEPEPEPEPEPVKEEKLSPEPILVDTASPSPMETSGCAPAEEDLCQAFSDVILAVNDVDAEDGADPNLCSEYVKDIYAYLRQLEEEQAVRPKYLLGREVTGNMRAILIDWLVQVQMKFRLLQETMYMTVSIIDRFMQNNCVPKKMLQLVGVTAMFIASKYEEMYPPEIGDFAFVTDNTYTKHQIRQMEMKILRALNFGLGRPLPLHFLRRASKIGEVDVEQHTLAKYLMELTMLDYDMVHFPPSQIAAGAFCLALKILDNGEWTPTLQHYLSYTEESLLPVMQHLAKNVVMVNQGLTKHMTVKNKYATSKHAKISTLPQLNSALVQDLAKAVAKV

Structure (SMILES)	IC50 (CDK2/Cyclin E1)	IC50 (CDK1/Cyclin B1)
CC(C)c1ncc(C2CCC(c3cc(Nc4ccc5c(c4F)CNS5(=O)=O)n[nH]3)C2)o1 (stereo not shown) [Example 105, 4-fluoro-5-((5-(3-(2-isopropyloxazol-5-yl)cyclopentyl)-1H-pyrazol-3-yl)amino)-2,3-dihydrobenzo[d]isothiazole 1,1-dioxide]	812 nM	> 10000 nM
CC(C)(C)c1cnc(C2CCC(c3cc(Nc4ccc5c(c4)CS(=O)(=O)N5)n[nH]3)C2)s1 (stereo not shown) [Example 137, 5-((5-(3-(5-(tert-butyl)thiazol-2-yl)cyclopentyl)-1H-pyrazol-3-yl)amino)-1,3-dihydrobenzo[c]isothiazole 2,2-dioxide]	2030 nM	> 10000 nM
CC(C)(C)c1coc(C2CCC(c3cc(Nc4ccc5c(c4F)CS(=O)(=O)N5)n[nH]3)C2)n1 (stereo not shown) [Example 148, 5-((5-(3-(4-(tert-butyl)oxazol-2-yl)cyclopentyl)-1H-pyrazol-3-yl)amino)-4-fluoro-1,3-dihydrobenzo[c]isothiazole 2,2-dioxide]	78 nM	7400 nM
CC(C)(C)c1cnc(C2CCC(c3cc(Nc4ccc5c(c4F)CNS5(=O)=O)n[nH]3)C2)s1 (stereo not shown) [Example 95, 5-((5-(3-(5-(tert-butyl)thiazol-2-yl)cyclopentyl)-1H-pyrazol-3-yl)amino)-4-fluoro-2,3-dihydrobenzo[d]isothiazole 1,1-dioxide]	7200 nM	> 10000 nM
CC(C)c1ccnc(C2CCC(c3cc(Nc4ccc5c(c4F)CNS5(=O)=O)n[nH]3)C2)c1 (stereo not shown) [Example 122, 4-fluoro-5-((5-(3-(4-isopropylpyridin-2-yl)cyclopentyl)-1H-pyrazol-3-yl)amino)-2,3-dihydrobenzo[d]isothiazole 1,1-dioxide]	72 nM	> 10000 nM
Cc1cc(C(C)(C)C)cc(C2CCC(c3cc(Nc4ccc5c(c4F)CNS5(=O)=O)n[nH]3)C2)n1 (stereo not shown) [Example 123, 5-((5-(3-(4-(tert-butyl)-6-methylpyridin-2-yl)cyclopentyl)-1H-pyrazol-3-yl)amino)-4-fluoro-2,3-dihydrobenzo[d]isothiazole 1,1-dioxide]	1740 nM	> 10000 nM
CC(C)(C)c1cnc(C2CCC(c3cc(Nc4cc5c(cc4F)S(=O)(=O)NC5)n[nH]3)C2)o1 (single isomer, unassigned) [Example 17a, 5-((5-(3-(5-(tert-butyl)oxazol-2-yl)cyclopentyl)-1H-pyrazol-3-yl)amino)-6-fluoro-2,3-dihydrobenzo[d]isothiazole 1,1-dioxide]	3.9 nM	2090 nM
CC(C)c1cnc(C2CCC(c3cc(Nc4cc5c(cc4F)S(=O)(=O)NC5)n[nH]3)C2)o1 (stereo not shown) [Example 18, 6-fluoro-5-((5-(3-(5-isopropyloxazol-2-yl)cyclopentyl)-1H-pyrazol-3-yl)amino)-2,3-dihydrobenzo[d]isothiazole 1,1-dioxide]	42 nM	> 10000 nM
CC(C)(C)c1ccc(C2CCC(c3cc(Nc4ccc5c(c4F)CS(=O)(=O)N5)n[nH]3)C2)nc1 (stereo not shown) [Example 156, 5-((5-(3-(5-(tert-butyl)pyridin-2-yl)cyclopentyl)-1H-pyrazol-3-yl)amino)-4-fluoro-1,3-dihydrobenzo[c]isothiazole 2,2-dioxide]	2020 nM	> 10000 nM
CC(C)(C)c1coc(C2CCC(c3cc(Nc4ccc5c(c4)CS(=O)(=O)N5)n[nH]3)C2)n1 (stereo not shown) [Example 136, 5-((5-(3-(4-(tert-butyl)oxazol-2-yl)cyclopentyl)-1H-pyrazol-3-yl)amino)-1,3-dihydrobenzo[c]isothiazole 2,2-dioxide]	60 nM	4950 nM
CC(C)c1ccnc(C2CCC(c3cc(Nc4ccc(S(N)(=O)=O)cc4F)n[nH]3)C2)n1 (stereo not shown) [Example 5, 3-fluoro-4-((5-(3-(4-isopropylpyrimidin-2-yl)cyclopentyl)-1H-pyrazol-3-yl)amino)benzenesulfonamide]	4.6 nM	656 nM
